Values after ≈ are worked out from the molar mass of the structure shown. Structures can show the parent of a compound that is named as a salt.
Key:
[1] = format: physicochemical; details: pH 6
[2] = Hygroscopicity study: moisture sorption by Dynamic Vapour Sorption (DVS); format: physicochemical; details: 0 to 75% RH, 30° C.
Experimental: The moisture sorptions of the three known polymorphs (α-form, β-form and present invention) of the hemisulphate of 3-(N-methyl-2(R)-pyrrolidinylmethyl)-5-(2-phenylsulphonylethyl)-1H-indole were determined using a Dynamic Vapour Sorption (DVS) Automated Sorption Analyser Model DVS-1 manufactured by Surface Measurements Systems Ltd, UK. Each polymorph was analysed by accurately weighing approximately 25 mg into the sample pan which was then exposed to humidities in the range 0 to 75% RH. The analysis temperature was 30° C. with a nitrogen flow rate of 200 cm^3 min^−1.

[3] = Stability study: polymorphic form re-examined by PXRD and DSC; format: physicochemical; details: stored for seven months under ambient conditions
[4] = Compression studies in an IR bench press; format: physicochemical; details: 5 tonnes for 1 minute, 13 mm punch and die set
[5] = as described in European Patent 0776323; cited from earlier work
[6] = listed as hemisulphate polymorph of the present invention

solubility [1] [mg/mL]	hygroscopicity (moisture sorption) [2, 6]	polymorphic stability (PXRD and DSC) [3]	polymorphic stability (PXRD and DSC) [3, 6]	SMILES	hygroscopicity (moisture sorption) [2]	colour change and punch filming upon compression [4]	colour change and punch filming upon compression [4, 6]	colour change and punch filming during tabletting [5]	hygroscopicity [5]	polymorphic stability [5]
2.90	–	–	–	CN1CCC[C@@H]1Cc1c[nH]c2ccc(CCS(=O)(=O)c3ccccc3)cc12 [hydrobromide, 3-(N-methyl-2(R)-pyrrolidinylmethyl)-5-(2-phenylsulphonylethyl)-1H-indole, reference compound]	–	–	–	–	–	–
478 (≈ 1250 mM)	negligible hygroscopicity	totally unchanged	no change in its polymorphic form	CN1CCC[C@@H]1Cc1c[nH]c2ccc(CCS(=O)(=O)c3ccccc3)cc12 [polymorph of the invention, 3-(N-methyl-2(R)-pyrrolidinylmethyl)-5-(2-phenylsulphonylethyl)-1H-indole]	markedly less hygroscopic than either the α- or β-form	no significant colour change and no evidence of punch filming	no significant colour change or punch filming	–	–	–
–	–	–	–	CN1CCC[C@@H]1Cc1c[nH]c2ccc(CCS(=O)(=O)c3ccccc3)cc12 [α-polymorph, 3-(N-methyl-2(R)-pyrrolidinylmethyl)-5-(2-phenylsulphonylethyl)-1H-indole]	–	–	–	giving rise to colour change and punch filming	hygroscopic	polymorphically unstable

Reference: patent US6369094B1, “Polymorphic salt” (Pfizer Inc., priority 1999, dated 2002)
